The text below walks through data of patent US8153787B2 (priority 2005, dated 2012).

The structures appear in SMILES notation. ≈ marks a conversion by molar mass, not a printed value. Like-named read-outs stand apart in the source and are kept apart here.

In one data set the test system is Vaccinia Virus (WR). In kind it is in vivo, mice. The following applies: after 20 days.
In another data set the test system is HEL cells. As to conditions: human.
Another data set deals with Orf virus (NZ2). Format: cell-based.
The next data set relates to Cowpox virus (Brighton). Details: species or system mice. The following applies: mouse, in vivo, sc.
A further data set is described as follows: in vitro. The following applies: African green monkey.
Data set [1] relates to Herpes simplex virus-1 (KOS and TK- KOS ACVr). In kind it is cell-based.
In a further data set the test system is Vaccinia virus. Put plainly: organism not typed. In kind it is cell-based. As to conditions: for EC50: HEL.
Data set [2] concerns human cervical carcinoma xenografts (HeLa, CaSki cells). Put plainly: Human cervical carcinoma xenografts (HeLa, CaSki) in athymic nude mice, FIG. 12. In kind it is in vivo. As to conditions: 5 and 10 mg/mL doses, intratumoral. On the procedure: FIGS. 12 A and B show the activity of (S)-HPMP-5-azacytosine compared to (S)-HPMPC against human papillomavirus in human cervical carcinoma xenografts in athymic nude mice. (A) Adult animals were injected subcutaneously with 5×10^6 HeLa cells, a human cervical carcinoma cell line which harbors integrated human papillomavirus […]. Once the tumors were established (approximately after 1 week), the mice were divided in several groups, the tumor size for each mouse was determined, and treatment with placebo (PBS) or the test compounds was started. The test solutions were administered intratumorally at a volume of 50 μl. Mice were treated once a day, 5 times a week for a period of 5 weeks. Every week, the tumor size for each animal was measured with a caliper in two perpendicular dimensions and tumor size was calculated by multiplying the two measured diameters. […] Once the tumors were established (approximately after 1 week), the mice were divided in several groups, the tumor size for each mouse was determined, and treatment with placebo (PBS) or the test compounds was started. […] Every week, the tumor size for each animal was measured with a caliper in two perpendicular dimensions and tumor size was calculated by multiplying the two measured diameters.
Background: A xenograft is tissue or cells of one species grown in another, often human tumour cells in immunodeficient mice.

Data set [3] relates to Varicella-Zoster Virus (VZV). Put plainly: microbe, parasite or virus in culture. Format: cell-based. As to conditions: for EC50: Human alphaherpesvirus 3, HEL.

As to `Nc1ncn(C[C@@H](CO)OCP(=O)(O)O)c(=O)n1` [Compound 3, (S)-1-[3-hydroxy-2-(Phosphonomethoxy)propyl]-5-azacytosine], in the data set with Vaccinia Virus (WR), the “survival, Vaccinia Virus (WR) mice model” value is recorded as 100%. In the data set with HEL cells, the “Toxicity MCC (microscop)” value is >100 µg/mL. The “activity against Orf virus (NZ2) in PHKs” value in the data set on Orf virus (NZ2) was “significant activity”. In the data set with Cowpox virus (Brighton), the “survival, Cowpox virus (Brighton) mice model” value stood at 100%. This compound also came in with a CC50 in “in vitro” of 129 µg/mL (≈ 460 µM). Besides, the “activity against Herpes simplex virus-1 (KOS and TK- KOS ACVr) in E6SM cell cultures” value in data set [1] is “significant activity”. The “activity against Vaccinia virus (Lederle, Lister, W R and Copenhagen) in HEL cells” value with Vaccinia virus was “significant activity”. In addition, the EC50 in the data set on Vaccinia virus (read-out: EC50 Vaccinia Virus Lister) amounted to 1.69 µg/mL (≈ 6.03 µM); in the data set with Vaccinia virus (Orthopoxvirus vaccinia, read-out: EC50 Vaccinia Virus Copenhagen) it was 2.26 µg/mL (≈ 8.07 µM); with Vaccinia virus (Orthopoxvirus vaccinia, read-out: EC50 Vaccinia Virus Lederle), 1.7 µg/mL (≈ 6.07 µM); in the data set with Vaccinia virus (Orthopoxvirus vaccinia, read-out: EC50 Vaccinia Virus WR), 2.45 µg/mL (≈ 8.74 µM); in data set [3] (read-out: EC50 VZV 07/1 strain (HEL cells)) it was 0.019 µg/mL (≈ 0.0678 µM); in [3] (read-out: EC50 VZV OKA strain (HEL cells)), 0.027 µg/mL (≈ 0.0964 µM). Also, the EC50 in [3] (read-out: EC50 VZV YS strain (HEL cells)) is 0.039 µg/mL (≈ 0.139 µM); in [3] (read-out: EC50 VZV YS-R strain (HEL cells)) it was 0.015 µg/mL (≈ 0.0535 µM). In data set [2], the “growth of tumors, human cervical carcinoma (FIG. 12)” value is recorded as “inhibit the growth of tumors”. Further, the “activity against VZV (Oka, YS, YS-R and 07-1) in HEL cells” value in data set [3] is “significant activity”.
